# Test results reported in US20050180921A1, “Contrast agents to improve gastrointestinal tract opacification during abdominal and pelvic CT scans” (priority 2004, published 2005).
# Test system: gastrointestinal tract
# Assay: CT of abdomen and pelvis after oral agent: bowel distension, wall visualization, transit to colon
# Assay type: in vivo, human
# Experimental: Institutional review board approval was obtained. These materials were offered to outpatients (ranging from 18 to 89 years of age) in random fashion. In each case, the patient was given literature to explain the project and then asked to sign a consent form. Those who declined participation in the study were given dilute iodinated contrast or water as appropriate for the exam. […] The amount of each material, 1600 cc, and timing, approximately 60 minutes, were standard for the preparation protocol used with dilute iodinated contrast. Although scanning parameters varied slightly, depending on the clinical question, all patients received 5 mm or less slices through the abdomen and pelvis. […] Where given, the intravenous contrast agent was administered from 3-5 cc/sec for 100-150 cc of 300 mg % non-ionic contrast.
# Each drink was labeled with a letter A-E to blind the administered substance to the reader. […] Each CT scan was read by consensus by two readers. Each exam was rated for various characteristics. The stomach was rated for distention: 1=well distended; 2=adequate distention; 3=poor distention. The small bowel was rated for two characteristics. The distention was assessed with measurements taken from the left upper quadrant (LUQ), the pelvis, and the right lower quadrant (RLQ) areas. Three measures were taken at each area with the greatest diameters used. The diameters were then averaged. The definition of the bowel wall was also graded using visualization of the wall separate from the luminal contents as well as the ability to appreciate the valvulae conniventes when present (1=excellent, 2=good, 3=fair, 4=poor, 5=non-diagnostic). Finally, an attempt was made to assess whether the ingested liquid was able to reach the colon during the preparation time period (0=no oral contrast in colon, 1=oral contrast in colon).
smiles,measurement,setting,value
"O [Water, water]",LUQ small bowel distention (averaged greatest diameters),"1600 cc oral, approximately 60 minutes, left upper quadrant, group mean",17.50 mm
same,Pelvis small bowel distention (averaged greatest diameters),"1600 cc oral, approximately 60 minutes, pelvis, group mean",14.79 mm
same,RLQ small bowel distention (averaged greatest diameters),"1600 cc oral, approximately 60 minutes, right lower quadrant, group mean",14.14 mm
same,"mid to distal / small bowel distention, result in words",FIGS. 2A-2D and study in general,least effective
same,"Wall (definition of the bowel wall, qualitative evaluation)","mean grade, 1=excellent, 2=good, 3=fair, 4=poor, 5=non-diagnostic",2.23
same,"Stomach (distention, qualitative evaluation)","mean grade, 1=well distended, 2=adequate distention, 3=poor distention",2.13
same,Colon (ingested liquid reached the colon during preparation time),"mean, 0=no oral contrast in colon, 1=oral contrast in colon",.020
